From US5665861A, “Cardiodilatin fragment, process for preparing same and use thereof” (HaemoPep Pharma GmbH, priority 1987, dated 1997)

Tested on: membrane preparation from dog kidney cortex
Test: Inactivation by membrane preparation from dog kidney cortex
Format: in vitro ADME
Source text: A unique proteolytic product separated by HPLC on a reverse phase column appears as a single peak which elutes prior to the intact peptide.

CC[C@H](C)[C@@H]1NC(=O)[C@H](CCCNC(=N)N)NC(=O)[C@H](CC(=O)O)NC(=O)[C@H](CCSC)NC(=O)[C@H](CCCNC(=N)N)NC(=O)CNC(=O)CNC(=O)[C@H](Cc2ccccc2)NC(=O)[C@@H](NC(=O)[C@H](CO)NC(=O)[C@H](CO)NC(=O)[C@H](CCCNC(=N)N)NC(=O)[C@H](CCCNC(=N)N)NC(=O)[C@H](CC(C)C)NC(=O)[C@@H](N)CO)CSSC[C@@H](C(=O)N[C@@H](CC(N)=O)C(=O)N[C@@H](CO)C(=O)N[C@@H](Cc2ccccc2)C(=O)N[C@@H](CCCNC(=N)N)C(=O)N[C@@H](Cc2ccc(O)cc2)C(=O)O)NC(=O)CNC(=O)[C@H](CC(C)C)NC(=O)CNC(=O)[C@H](CO)NC(=O)[C@H](CCC(N)=O)NC(=O)[C@H](C)NC(=O)CNC1=O [ANF-(99-126)]
position of the inactivating cleavage of the ring structure: between Cys-105 and Phe-106
